Measured values reported in publication PMC5218480 (PLoS ONE, 2017).

Test system: MV-4-11 cells
Assay: Gene expression microarray analysis (Affymetrix PrimeView) and GSEA
Type: cell-based, human
Parameters: RFU PODN (11730768_x_at) / Fold change /veh PODN (11730768_x_at) / RFU LINC00158 (11744669_a_at) / Fold change /veh LINC00158 (11744669_a_at) / RFU DUSP10 (11751237_a_at) / Fold change /veh DUSP10 (11751237_a_at) / RFU ID3 (11757404_x_at) / Fold change /veh ID3 (11757404_x_at) / RFU PLEKHG5 (11737974_s_at) / Fold change /veh PLEKHG5 (11737974_s_at) / RFU LRRC4B (11730491_at) / Fold change /veh LRRC4B (11730491_at) / RFU GIMAP4 (11747438_a_at) / Fold change /veh GIMAP4 (11747438_a_at) / RFU KRT8 (11758183_x_at) / Fold change /veh KRT8 (11758183_x_at) / RFU CNN1 (11734310_a_at) / Fold change /veh CNN1 (11734310_a_at) / RFU VPS37D (11726825_at) / Fold change /veh VPS37D (11726825_at) / RFU C10orf10 (11716522_x_at) / Fold change /veh C10orf10 (11716522_x_at) / RFU KIR2DL2 /// KIR2DL4 /// KIR2DL5A /// KIR2DL5B /// KIR2DS1 /// KIR2DS2 /// KIR2DS3 /// KIR2DS4 /// KIR3DL3 /// KIR3DL3 /// KIR3DS1 (11738374_at) / Fold change /veh KIR2DL2 /// KIR2DL4 /// KIR2DL5A /// KIR2DL5B /// KIR2DS1 /// KIR2DS2 /// KIR2DS3 /// KIR2DS4 /// KIR3DL3 /// KIR3DL3 /// KIR3DS1 (11738374_at) / RFU C1QL1 (11718748_at) / Fold change /veh C1QL1 (11718748_at) / RFU TMPRSS4 (11747572_a_at) / Fold change /veh TMPRSS4 (11747572_a_at) / RFU HAMP (11756126_x_at) / Fold change /veh HAMP (11756126_x_at) / RFU RNFT2 (11725882_a_at) / Fold change /veh RNFT2 (11725882_a_at) / RFU NR4A2 (11747474_a_at) / Fold change /veh NR4A2 (11747474_a_at) / RFU ABCC12 (11746883_a_at) / Fold change /veh ABCC12 (11746883_a_at) / RFU TMEM136 (11760407_x_at) / Fold change /veh TMEM136 (11760407_x_at) / RFU CLDN22 /// WWC2 (11732394_at) / Fold change /veh CLDN22 /// WWC2 (11732394_at) / RFU HLA-DPB1 (11760878_x_at) / Fold change /veh HLA-DPB1 (11760878_x_at) / RFU SPINT1 (11716480_a_at) / Fold change /veh SPINT1 (11716480_a_at) / RFU GAP43 (11754022_s_at) / Fold change /veh GAP43 (11754022_s_at) / RFU A4GNT (11735810_at) / Fold change /veh A4GNT (11735810_at) / RFU PRB3 (11715151_x_at) / Fold change /veh PRB3 (11715151_x_at) / RFU TUBB4B (11761932_at) / Fold change /veh TUBB4B (11761932_at) / RFU CAPN14 (11732068_a_at) / Fold change /veh CAPN14 (11732068_a_at) / RFU TMCC2 (11721928_a_at) / Fold change /veh TMCC2 (11721928_a_at) / RFU IRGQ (11745062_a_at) / Fold change /veh IRGQ (11745062_a_at) / RFU FAM174B (11720279_a_at) / Fold change /veh FAM174B (11720279_a_at) / RFU TMPRSS4 (11748680_a_at) / Fold change /veh TMPRSS4 (11748680_a_at) / RFU FAM212B (11763350_a_at) / Fold change /veh FAM212B (11763350_a_at) / RFU PLEKHG5 (11743358_a_at) / Fold change /veh PLEKHG5 (11743358_a_at) / RFU ZSCAN30 (11745921_a_at) / Fold change /veh ZSCAN30 (11745921_a_at) / RFU CMKLR1 (11741424_a_at) / Fold change /veh CMKLR1 (11741424_a_at) / RFU LOC101060620 /// MAPK8IP1 (11723275_at) / Fold change /veh LOC101060620 /// MAPK8IP1 (11723275_at) / RFU SPTSSB (11747773_x_at) / Fold change /veh SPTSSB (11747773_x_at) / RFU PRSS12 (11739890_at) / Fold change /veh PRSS12 (11739890_at) / RFU BIN1 (11741810_x_at) / Fold change /veh BIN1 (11741810_x_at) / RFU WNT11 (11732464_a_at) / Fold change /veh WNT11 (11732464_a_at) / RFU C10orf10 (11716521_a_at) / Fold change /veh C10orf10 (11716521_a_at) / RFU C5orf56 (11738089_at) / Fold change /veh C5orf56 (11738089_at) / RFU CYB561 (11721691_x_at) / Fold change /veh CYB561 (11721691_x_at) / RFU ANKRD19P (11752326_a_at) / Fold change /veh ANKRD19P (11752326_a_at) / RFU OR2T12 /// OR2T33 /// OR2T8 (11738714_s_at) / Fold change /veh OR2T12 /// OR2T33 /// OR2T8 (11738714_s_at) / RFU VCAN (11748164_a_at) / Fold change /veh VCAN (11748164_a_at) / RFU JSRP1 (11732532_at) / Fold change /veh JSRP1 (11732532_at) / RFU KRTAP10-11 (11738290_x_at) / Fold change /veh KRTAP10-11 (11738290_x_at) / RFU MYO3A (11730013_a_at) / Fold change /veh MYO3A (11730013_a_at) / RFU EBF3 (11725865_a_at) / Fold change /veh EBF3 (11725865_a_at) / RFU CAMK2N1 (11719241_x_at) / Fold change /veh CAMK2N1 (11719241_x_at) / RFU C5orf56 (11738088_a_at) / Fold change /veh C5orf56 (11738088_a_at) / RFU OLFML3 (11715873_a_at) / Fold change /veh OLFML3 (11715873_a_at) / RFU LOC100653217 /// NTM (11731650_a_at) / Fold change /veh LOC100653217 /// NTM (11731650_a_at) / RFU MAPK11 (11762145_a_at) / Fold change /veh MAPK11 (11762145_a_at) / RFU FIZ1 (11724087_x_at) / Fold change /veh FIZ1 (11724087_x_at) / RFU OASL (11726364_x_at) / Fold change /veh OASL (11726364_x_at) / RFU SOX15 (11748057_x_at) / Fold change /veh SOX15 (11748057_x_at) / RFU CD79A (11719716_a_at) / Fold change /veh CD79A (11719716_a_at) / RFU HIST1H1D (11736915_at) / Fold change /veh HIST1H1D (11736915_at) / RFU CASKIN2 (11723855_a_at) / Fold change /veh CASKIN2 (11723855_a_at) / RFU LOC730098 (11760151_x_at) / Fold change /veh LOC730098 (11760151_x_at) / RFU OR4N2 (11742367_at) / Fold change /veh OR4N2 (11742367_at) / RFU PRRT2 (11749266_a_at) / Fold change /veh PRRT2 (11749266_a_at) / RFU SNX32 (11753110_a_at) / Fold change /veh SNX32 (11753110_a_at) / RFU CDHR5 (11726645_a_at) / Fold change /veh CDHR5 (11726645_a_at) / RFU RCAN1 (11760418_a_at) / Fold change /veh RCAN1 (11760418_a_at) / RFU FAM167A (11723789_a_at) / Fold change /veh FAM167A (11723789_a_at) / RFU FAM26E (11764081_at) / Fold change /veh FAM26E (11764081_at) / RFU ISYNA1 (11749810_s_at) / Fold change /veh ISYNA1 (11749810_s_at) / RFU ACY1 (11761880_at) / Fold change /veh ACY1 (11761880_at) / RFU 11764098_at / Fold change /veh 11764098_at / RFU SAMD14 (11745864_x_at) / Fold change /veh SAMD14 (11745864_x_at) / RFU NPB (11741838_a_at) / Fold change /veh NPB (11741838_a_at) / RFU TMPRSS6 (11731388_a_at) / Fold change /veh TMPRSS6 (11731388_a_at) / RFU KRTAP10-2 (11738614_at) / Fold change /veh KRTAP10-2 (11738614_at) / RFU ARHGAP8 /// PRR5-ARHGAP8 (11727945_x_at) / Fold change /veh ARHGAP8 /// PRR5-ARHGAP8 (11727945_x_at) / RFU KRTAP5-7 /// NADSYN1 (11734609_at) / Fold change /veh KRTAP5-7 /// NADSYN1 (11734609_at) / RFU RASL12 (11751679_a_at) / Fold change /veh RASL12 (11751679_a_at) / RFU CDKN2B (11736163_a_at) / Fold change /veh CDKN2B (11736163_a_at) / RFU PRF1 (11729649_at) / Fold change /veh PRF1 (11729649_at) / RFU, ZNF638 /// ZNF638-IT1 / Fold change vs veh, ZNF638 /// ZNF638-IT1 / RFU, PANK3 / Fold change vs veh, PANK3 / RFU, SH3YL1 / Fold change vs veh, SH3YL1 / RFU, ZEB2 / Fold change vs veh, ZEB2 / RFU, NRIP1 / Fold change vs veh, NRIP1 / RFU, PTTG1IP / Fold change vs veh, PTTG1IP / RFU, CAPN2 / Fold change vs veh, CAPN2 / RFU, MED14 / Fold change vs veh, MED14 / RFU, SNORA58 / Fold change vs veh, SNORA58 / RFU, C1orf63 / Fold change vs veh, C1orf63 / RFU, LRRFIP1 / Fold change vs veh, LRRFIP1 / RFU, NDUFAF7 / Fold change vs veh, NDUFAF7 / RFU, SLC12A2 / Fold change vs veh, SLC12A2 / RFU, IBTK / Fold change vs veh, IBTK / RFU, ESF1 / Fold change vs veh, ESF1 / Fold change vs veh, TMEM50B / RFU, TAOK1 / Fold change vs veh, TAOK1 / RFU, ACBD3 / Fold change vs veh, ACBD3 / RFU, TMA16 / Fold change vs veh, TMA16 / RFU, RWDD3 / Fold change vs veh, RWDD3 / RFU, BCAT1 / Fold change vs veh, BCAT1 / RFU, EDEM3 / Fold change vs veh, EDEM3 / RFU, TMEM33 / Fold change vs veh, TMEM33 / RFU, WDR75 / Fold change vs veh, WDR75 / RFU, AHCTF1 / Fold change vs veh, AHCTF1 / RFU, TFRC / Fold change vs veh, TFRC / RFU, ZDHHC17 / Fold change vs veh, ZDHHC17 / RFU, NOM1 / Fold change vs veh, NOM1 / RFU, ARL8B / Fold change vs veh, ARL8B / RFU, ZBTB11 / Fold change vs veh, ZBTB11 / RFU, TAMM41 / Fold change vs veh, TAMM41 / RFU, KIAA1704 /// LOC100996395 / Fold change vs veh, KIAA1704 /// LOC100996395 / RFU, ING1 / Fold change vs veh, ING1 / RFU, TRMT61B / Fold change vs veh, TRMT61B / RFU, FUBP3 / Fold change vs veh, FUBP3 / RFU, TP53 / Fold change vs veh, TP53 / RFU, TNKS2 / Fold change vs veh, TNKS2 / RFU, ZFP14 / Fold change vs veh, ZFP14 / RFU, ACTR2 / Fold change vs veh, ACTR2 / RFU, PPP3R1 / Fold change vs veh, PPP3R1 / RFU, PIK3R1 / Fold change vs veh, PIK3R1 / RFU, HNRNPA1 / Fold change vs veh, HNRNPA1 / RFU, RNF170 / Fold change vs veh, RNF170 / RFU, ZNF28 / Fold change vs veh, ZNF28 / RFU, RNGTT / Fold change vs veh, RNGTT / RFU, OGT / Fold change vs veh, OGT / RFU, BRD1 / Fold change vs veh, BRD1 / RFU, MARS / Fold change vs veh, MARS / RFU, ZNF655 / Fold change vs veh, ZNF655 / RFU, FAHD1 / Fold change vs veh, FAHD1 / RFU, BDP1 / Fold change vs veh, BDP1 / RFU, LRRCC1 / Fold change vs veh, LRRCC1 / RFU, ARID1A / Fold change vs veh, ARID1A / RFU, ZNF146 / Fold change vs veh, ZNF146 / RFU, ZNF330 / Fold change vs veh, ZNF330 / RFU, GPN3 / Fold change vs veh, GPN3 / RFU, C9orf123 / Fold change vs veh, C9orf123 / RFU, N4BP2L2 / Fold change vs veh, N4BP2L2 / RFU, ARFIP1 / Fold change vs veh, ARFIP1 / RFU, FAM179B / Fold change vs veh, FAM179B / RFU, BCL10 / Fold change vs veh, BCL10 / RFU, UHRF1BP1L / Fold change vs veh, UHRF1BP1L / RFU, BET1 / Fold change vs veh, BET1 / RFU, CNOT2 / Fold change vs veh, CNOT2 / RFU, ZNF268 / Fold change vs veh, ZNF268 / Fold change vs veh, ZNF507 / RFU, DGCR2 / Fold change vs veh, DGCR2 / RFU, WDSUB1 / Fold change vs veh, WDSUB1 / Fold change vs veh, HSP90B1 /// MIR3652 / RFU, ADSS / Fold change vs veh, ADSS / RFU, GK / Fold change vs veh, GK / RFU, ZNF148 / Fold change vs veh, ZNF148 / RFU, TAF9 / Fold change vs veh, TAF9 / RFU, SLC1A5 / Fold change vs veh, SLC1A5 / RFU, SLMO2 / Fold change vs veh, SLMO2 / RFU, ABCC4 / Fold change vs veh, ABCC4 / RFU, LOC101060439 /// RAP1B / Fold change vs veh, LOC101060439 /// RAP1B / RFU, RFX7 / Fold change vs veh, RFX7 / RFU, GTPBP10 / Fold change vs veh, GTPBP10 / RFU, CNEP1R1 / Fold change vs veh, CNEP1R1 / RFU, BIVM-ERCC5 /// ERCC5 / Fold change vs veh, BIVM-ERCC5 /// ERCC5 / RFU, ILF3 / Fold change vs veh, ILF3 / RFU 11762660_at / Fold change /veh 11762660_at / RFU VCAN (11757783_s_at) / Fold change /veh VCAN (11757783_s_at) / RFU DDX43 (11728927_at) / Fold change /veh DDX43 (11728927_at) / RFU KRT8 (11758188_x_at) / Fold change /veh KRT8 (11758188_x_at) / RFU NKD1 (11759106_at) / Fold change /veh NKD1 (11759106_at) / RFU SRD5A1 (11742802_a_at) / Fold change /veh SRD5A1 (11742802_a_at) / RFU TPSAB1 /// TPSB2 (11721975_s_at) / Fold change /veh TPSAB1 /// TPSB2 (11721975_s_at) / RFU GSTM3 (11746129_a_at) / Fold change /veh GSTM3 (11746129_a_at) / RFU IL23R (11737362_x_at) / Fold change /veh IL23R (11737362_x_at) / RFU TMEM51 (11727254_a_at) / Fold change /veh TMEM51 (11727254_a_at) / RFU PIWIL2 (11732686_x_at) / Fold change /veh PIWIL2 (11732686_x_at) / RFU ORM1 (11744905_x_at) / Fold change /veh ORM1 (11744905_x_at) / RFU CCDC152 (11743942_at) / Fold change /veh CCDC152 (11743942_at) / RFU ECM1 (11717891_a_at) / Fold change /veh ECM1 (11717891_a_at) / RFU IL23R (11748794_a_at) / Fold change /veh IL23R (11748794_a_at) / RFU TNFAIP8L3 (11732012_x_at) / Fold change /veh TNFAIP8L3 (11732012_x_at) / RFU MBOAT4 (11741988_at) / Fold change /veh MBOAT4 (11741988_at) / RFU 11764193_at / Fold change /veh 11764193_at / RFU TMEM53 (11763286_at) / Fold change /veh TMEM53 (11763286_at) / RFU MAGEB2 (11727129_at) / Fold change /veh MAGEB2 (11727129_at) / RFU TMEM200A (11744735_a_at) / Fold change /veh TMEM200A (11744735_a_at) / RFU CCDC152 (11751479_a_at) / Fold change /veh CCDC152 (11751479_a_at) / RFU FAM211A (11726209_a_at) / Fold change /veh FAM211A (11726209_a_at) / RFU RGS16 (11746705_a_at) / Fold change /veh RGS16 (11746705_a_at) / RFU VCAN (11755009_s_at) / Fold change /veh VCAN (11755009_s_at) / RFU RHOB (11743442_s_at) / Fold change /veh RHOB (11743442_s_at) / RFU RGS16 (11720943_a_at) / Fold change /veh RGS16 (11720943_a_at) / RFU RGS16 (11720944_at) / Fold change /veh RGS16 (11720944_at) / RFU, VPS4B / Fold change vs veh, VPS4B / RFU, CREB1 / Fold change vs veh, CREB1 / RFU, DNAJC13 / Fold change vs veh, DNAJC13 / RFU, GNAQ / Fold change vs veh, GNAQ / RFU, CDK5R1 / Fold change vs veh, CDK5R1 / RFU, ZRANB3 / Fold change vs veh, ZRANB3 / RFU, CUL4A / Fold change vs veh, CUL4A / RFU, CCNY / Fold change vs veh, CCNY / RFU, UFL1 / Fold change vs veh, UFL1 / RFU, COG3 / Fold change vs veh, COG3 / RFU, DIAPH2 / Fold change vs veh, DIAPH2 / RFU, SKA2 / Fold change vs veh, SKA2 / RFU, AFF3 / Fold change vs veh, AFF3 / RFU, LMF1 / Fold change vs veh, LMF1 / RFU, IPO11 / Fold change vs veh, IPO11 / RFU, DFFB / Fold change vs veh, DFFB / RFU, FOXP1 / Fold change vs veh, FOXP1 / RFU, CARD8 / Fold change vs veh, CARD8 / RFU, STRN3 / Fold change vs veh, STRN3 / RFU, ADK / Fold change vs veh, ADK / RFU, RASSF2 / Fold change vs veh, RASSF2 / RFU, WIPF1 / Fold change vs veh, WIPF1 / RFU, LARP1B / Fold change vs veh, LARP1B / RFU, RASA1 / Fold change vs veh, RASA1 / RFU, RB1 / Fold change vs veh, RB1 / RFU, PPFIA1 / Fold change vs veh, PPFIA1 / RFU, MAT2A / Fold change vs veh, MAT2A / RFU, CCT5 / Fold change vs veh, CCT5 / RFU, WDR92 / Fold change vs veh, WDR92 / RFU, CUX1 / Fold change vs veh, CUX1 / RFU, TTC7A / Fold change vs veh, TTC7A / RFU, TMEM135 / Fold change vs veh, TMEM135 / RFU, DEPTOR / Fold change vs veh, DEPTOR / RFU, CPM / Fold change vs veh, CPM / RFU, DNAJB6 / Fold change vs veh, DNAJB6 / RFU, CACNA2D3 / Fold change vs veh, CACNA2D3 / RFU, DTX4 / Fold change vs veh, DTX4 / RFU, TFCP2 / Fold change vs veh, TFCP2 / RFU, GMCL1 /// GMCL1P1 / Fold change vs veh, GMCL1 /// GMCL1P1 / RFU, AEBP2 / Fold change vs veh, AEBP2 / RFU, SNHG1 /// SNORD22 /// SNORD25 /// SNORD26 /// SNORD27 /// SNORD28 /// SNORD29 /// SNORD31 / Fold change vs veh, SNHG1 /// SNORD22 /// SNORD25 /// SNORD26 /// SNORD27 /// SNORD28 /// SNORD29 /// SNORD31 / Fold change (Aza/veh), C12orf56 (ProbeSet 11735607_a_at) / Fold change (ACY-1035/veh), C12orf56 (ProbeSet 11735607_a_at) / Fold change (Aza/veh), FGFR1OP (ProbeSet 11751329_s_at) / Fold change (ACY-1035/veh), FGFR1OP (ProbeSet 11751329_s_at) / Fold change (Aza/veh), VPS36 (ProbeSet 11739960_a_at) / Fold change (ACY-1035/veh), VPS36 (ProbeSet 11739960_a_at) / RFU SYPL1 (11715823_x_at) / Fold change /veh SYPL1 (11715823_x_at) / RFU IGFBP7 (11715501_s_at) / Fold change /veh IGFBP7 (11715501_s_at) / RFU REEP3 (11722064_at) / Fold change /veh REEP3 (11722064_at) / RFU IGLL1 (11728026_x_at) / Fold change /veh IGLL1 (11728026_x_at): dose or concentration left out as unconfirmed
Conditions: MV-4-11 cells, 48 hours

Nc1ncn([C@@H]2O[C@H](CO)[C@@H](O)[C@H]2O)c(=O)n1 [azacitidine]
Fold change /veh KRT8 (11758183_x_at): 1.18
